Earlier results, collected in patent publication US20110059177A1, “Cardioplegia Solution for Cardiac Surgery” (priority 2008, published 2011).

Columns and labels:
[1] = test system: common carotid artery IMT (intima-media thickness); conditions: patients with coronary artery disease, 6 months

SMILES | common carotid artery IMT (intima-media thickness) [1] | markers of inflammation [1] | activity level relative to tetracycline (150 mg of minocycline vs 250 mg of tetracycline at 24-48 hours) [times] | serum levels relative to most other tetracyclines (result of long half-life)
CCOC(=O)C1=C(C)NC(C)=C(C(=O)OCC)C1c1ccccc1/C=C/C(=O)OC(C)(C)C [Lacidipine] | significant reduction | decrease | – | –
CN(C)c1ccc(O)c2c1C[C@H]1C[C@H]3[C@H](N(C)C)C(O)=C(C(N)=O)C(=O)[C@@]3(O)C(O)=C1C2=O [Minocycline] | – | – | 16 | 2-4 times
